Test results: ChEMBL document CHEMBL5584280, “Optimization of Novel Pyrido-pyridazinone Derivatives as FER Tyrosine Kinase Inhibitors, Leading to the Potent DS08701581” (ACS Med Chem Lett, 2024)
Values after ≈ are worked out from the molar mass of the structure shown.

Experiments:
[1] = system: BaF3; assay: Inhibition of cell viability in mouse BaF3 cells expressing FER incubated for 3 days by Cell Titer Glo assay; format: functional; conditions: BaF3, 72 h, time 3 day
[2] = system: BaF3; assay: Inhibition of cell viability in mouse BaF3 cells incubated for 3 days by Cell Titer Glo assay; format: functional; conditions: BaF3, 72 h, time 3 day
[3] = molecular target: Tyrosine-protein kinase Fer (Homo sapiens, UniProt P16591); assay: Inhibition of N-terminal His-tagged recombinant human FER using FL-Peptide22 as substrate incubated for 90 mins in presence of ATP
[4] = Metabolic stability in CD-1 mouse liver microsomes assessed as compound remaining at 1 uM incubated for 30 mins by LC-MS/MS analysis; format: ADME, Microsome; conditions: read-out: Stability
[5] = Solubility of compound in buffer at pH 6.8 incubated for 4 hrs by HPLC-UV analysis; format: physicochemical
[6] = Solubility of compound in FaSSIF incubated for 4 hrs by HPLC-UV analysis; format: ADME
[7] = Protein binding in BALB/c mouse serum at 10 ug/ml incubated for 4 hrs by equilibrium dialysis; format: ADME, cell-free; conditions: at 10 µg/mL, read-out: PB (converted)
[8] = Permeability co-efficient of compound at 5 uM incubated for 4 hrs by PAMPA; format: ADME; conditions: read-out: Peff
[9] = Total plasma clearance in BALB/cAnNCrlCrlj mouse at 1 mg/kg, iv; format: ADME, organism-based
[10] = AUC in BALB/cAnNCrlCrlj mouse at 10 mg/kg, po; format: ADME, organism-based; conditions: in vivo
[11] = Cmax in BALB/cAnNCrlCrlj mouse at 10 mg/kg, po; format: ADME, organism-based; conditions: in vivo
[12] = Oral bioavailability in BALB/cAnNCrlCrlj mouse at 10 mg/kg; format: ADME, organism-based; conditions: in vivo
[13] = molecular target: ALK tyrosine kinase receptor (Homo sapiens) (UniProt Q9UM73); assay: Inhibition of ALK (unknown origin) at 200 nM in presence of ATP by kinase profiling analysis relative to control
Sequence of ALK tyrosine kinase receptor (Homo sapiens) (Q9UM73 19-1620 limits assumed): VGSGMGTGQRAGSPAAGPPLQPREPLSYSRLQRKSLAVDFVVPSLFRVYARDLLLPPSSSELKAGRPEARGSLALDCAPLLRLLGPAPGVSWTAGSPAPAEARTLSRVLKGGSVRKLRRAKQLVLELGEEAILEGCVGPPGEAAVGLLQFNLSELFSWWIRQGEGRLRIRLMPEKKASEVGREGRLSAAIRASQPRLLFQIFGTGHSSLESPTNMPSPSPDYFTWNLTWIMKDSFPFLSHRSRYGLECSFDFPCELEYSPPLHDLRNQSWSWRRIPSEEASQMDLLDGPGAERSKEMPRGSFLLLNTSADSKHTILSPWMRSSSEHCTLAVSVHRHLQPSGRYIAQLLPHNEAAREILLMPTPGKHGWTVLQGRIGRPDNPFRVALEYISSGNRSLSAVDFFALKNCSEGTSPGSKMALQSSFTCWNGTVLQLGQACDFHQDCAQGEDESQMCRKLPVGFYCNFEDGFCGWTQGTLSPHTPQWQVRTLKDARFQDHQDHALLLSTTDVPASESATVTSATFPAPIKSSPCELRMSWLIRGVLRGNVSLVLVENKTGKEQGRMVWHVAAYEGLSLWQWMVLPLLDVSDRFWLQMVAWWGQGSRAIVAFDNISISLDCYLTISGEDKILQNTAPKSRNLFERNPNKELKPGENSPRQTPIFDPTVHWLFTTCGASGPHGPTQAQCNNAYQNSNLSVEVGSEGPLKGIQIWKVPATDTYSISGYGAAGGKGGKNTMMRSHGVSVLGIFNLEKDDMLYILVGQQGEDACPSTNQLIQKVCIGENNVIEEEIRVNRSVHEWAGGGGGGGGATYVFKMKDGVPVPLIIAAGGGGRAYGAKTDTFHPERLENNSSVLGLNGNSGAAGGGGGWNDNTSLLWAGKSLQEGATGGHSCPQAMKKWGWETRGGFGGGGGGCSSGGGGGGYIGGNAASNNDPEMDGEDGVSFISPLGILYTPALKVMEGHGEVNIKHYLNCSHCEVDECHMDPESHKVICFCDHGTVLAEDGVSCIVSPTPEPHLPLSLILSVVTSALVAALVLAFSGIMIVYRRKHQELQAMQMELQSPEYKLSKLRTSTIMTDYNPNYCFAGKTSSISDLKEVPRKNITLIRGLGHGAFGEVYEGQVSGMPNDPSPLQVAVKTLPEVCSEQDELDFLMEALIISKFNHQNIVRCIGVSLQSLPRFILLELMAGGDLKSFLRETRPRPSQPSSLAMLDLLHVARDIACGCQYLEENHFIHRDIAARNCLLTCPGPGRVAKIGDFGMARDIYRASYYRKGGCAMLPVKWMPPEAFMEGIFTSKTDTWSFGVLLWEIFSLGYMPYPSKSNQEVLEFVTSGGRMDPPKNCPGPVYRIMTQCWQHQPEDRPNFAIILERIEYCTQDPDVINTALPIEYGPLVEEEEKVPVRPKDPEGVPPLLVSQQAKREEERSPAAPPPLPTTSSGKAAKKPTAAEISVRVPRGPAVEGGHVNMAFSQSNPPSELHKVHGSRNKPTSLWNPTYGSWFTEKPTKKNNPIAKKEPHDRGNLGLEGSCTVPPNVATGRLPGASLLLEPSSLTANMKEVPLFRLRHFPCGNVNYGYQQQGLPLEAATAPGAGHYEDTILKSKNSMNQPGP

[14] = molecular target: Receptor-type tyrosine-protein kinase FLT3 (Homo sapiens) (UniProt P36888); assay: Inhibition of FLT3 (unknown origin) at 200 nM in presence of ATP by kinase profiling analysis relative to control
Sequence of Receptor-type tyrosine-protein kinase FLT3 (Homo sapiens) (P36888 whole entry): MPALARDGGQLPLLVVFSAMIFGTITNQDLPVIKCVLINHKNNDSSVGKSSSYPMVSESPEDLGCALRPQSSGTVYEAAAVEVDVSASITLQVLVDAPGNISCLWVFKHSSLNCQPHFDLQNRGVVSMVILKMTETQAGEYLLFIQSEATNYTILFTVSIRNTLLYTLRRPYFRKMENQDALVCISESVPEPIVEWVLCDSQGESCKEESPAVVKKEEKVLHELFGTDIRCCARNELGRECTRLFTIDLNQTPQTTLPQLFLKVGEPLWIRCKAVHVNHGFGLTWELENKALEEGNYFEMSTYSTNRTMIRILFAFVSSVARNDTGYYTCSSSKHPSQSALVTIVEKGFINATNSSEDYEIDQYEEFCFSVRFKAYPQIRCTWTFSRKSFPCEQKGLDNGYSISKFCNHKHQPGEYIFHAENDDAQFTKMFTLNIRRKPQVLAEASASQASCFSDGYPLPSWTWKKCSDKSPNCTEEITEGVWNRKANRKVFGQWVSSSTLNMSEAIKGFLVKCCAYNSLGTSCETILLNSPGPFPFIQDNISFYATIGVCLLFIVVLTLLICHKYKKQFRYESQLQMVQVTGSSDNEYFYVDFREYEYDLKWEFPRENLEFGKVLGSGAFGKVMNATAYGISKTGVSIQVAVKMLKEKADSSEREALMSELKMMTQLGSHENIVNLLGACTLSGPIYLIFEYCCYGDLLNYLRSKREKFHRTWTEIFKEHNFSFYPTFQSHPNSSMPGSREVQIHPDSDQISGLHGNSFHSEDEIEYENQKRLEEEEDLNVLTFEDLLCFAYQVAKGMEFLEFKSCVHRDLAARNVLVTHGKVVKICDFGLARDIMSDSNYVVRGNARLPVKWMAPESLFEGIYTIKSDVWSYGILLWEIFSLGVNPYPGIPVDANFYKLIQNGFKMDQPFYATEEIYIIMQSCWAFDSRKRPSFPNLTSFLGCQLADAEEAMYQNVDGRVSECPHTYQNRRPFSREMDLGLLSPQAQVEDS

[15] = molecular target: Protein-tyrosine kinase 2-beta (Homo sapiens) (UniProt Q14289); assay: Inhibition of PTK2B (unknown origin) at 200 nM in presence of ATP by kinase profiling analysis relative to control
Sequence of Protein-tyrosine kinase 2-beta (Homo sapiens) (Q14289 whole entry, looked up): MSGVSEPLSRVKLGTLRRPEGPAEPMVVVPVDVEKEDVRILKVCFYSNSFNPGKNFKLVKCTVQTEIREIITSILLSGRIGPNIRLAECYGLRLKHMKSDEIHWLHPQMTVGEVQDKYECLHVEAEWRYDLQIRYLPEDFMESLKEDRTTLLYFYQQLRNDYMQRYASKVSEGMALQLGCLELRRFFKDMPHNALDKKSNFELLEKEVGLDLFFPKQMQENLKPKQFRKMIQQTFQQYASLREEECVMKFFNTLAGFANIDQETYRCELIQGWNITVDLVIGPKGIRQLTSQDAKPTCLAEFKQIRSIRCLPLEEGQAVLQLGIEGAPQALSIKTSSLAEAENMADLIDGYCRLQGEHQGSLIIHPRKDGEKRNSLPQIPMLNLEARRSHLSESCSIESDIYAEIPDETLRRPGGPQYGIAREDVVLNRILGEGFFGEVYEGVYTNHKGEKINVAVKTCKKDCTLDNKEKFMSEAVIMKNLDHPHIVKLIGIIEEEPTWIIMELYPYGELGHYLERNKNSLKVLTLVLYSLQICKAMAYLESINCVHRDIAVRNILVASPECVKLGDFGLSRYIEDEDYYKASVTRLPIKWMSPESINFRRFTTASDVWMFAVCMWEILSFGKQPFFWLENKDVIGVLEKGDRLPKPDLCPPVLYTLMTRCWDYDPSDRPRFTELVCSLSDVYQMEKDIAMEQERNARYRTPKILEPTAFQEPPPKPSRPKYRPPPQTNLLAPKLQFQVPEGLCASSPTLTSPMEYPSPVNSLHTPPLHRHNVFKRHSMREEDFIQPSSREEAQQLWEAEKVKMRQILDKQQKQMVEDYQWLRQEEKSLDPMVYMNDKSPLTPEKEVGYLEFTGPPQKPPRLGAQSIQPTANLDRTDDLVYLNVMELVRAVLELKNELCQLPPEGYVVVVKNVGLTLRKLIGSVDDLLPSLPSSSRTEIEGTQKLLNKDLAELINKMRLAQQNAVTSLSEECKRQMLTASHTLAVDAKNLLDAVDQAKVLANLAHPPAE

[16] = molecular target: Tyrosine-protein kinase SYK (Homo sapiens) (UniProt P43405); assay: Inhibition of SYK (unknown origin) at 200 nM in presence of ATP by kinase profiling analysis relative to control
[17] = molecular target: Serine/threonine-protein kinase Chk2 (Homo sapiens) (UniProt O96017); assay: Inhibition of CHEK2 (unknown origin) at 200 nM in presence of ATP by kinase profiling analysis relative to control
Sequence of Serine/threonine-protein kinase Chk2 (Homo sapiens) (O96017 whole entry): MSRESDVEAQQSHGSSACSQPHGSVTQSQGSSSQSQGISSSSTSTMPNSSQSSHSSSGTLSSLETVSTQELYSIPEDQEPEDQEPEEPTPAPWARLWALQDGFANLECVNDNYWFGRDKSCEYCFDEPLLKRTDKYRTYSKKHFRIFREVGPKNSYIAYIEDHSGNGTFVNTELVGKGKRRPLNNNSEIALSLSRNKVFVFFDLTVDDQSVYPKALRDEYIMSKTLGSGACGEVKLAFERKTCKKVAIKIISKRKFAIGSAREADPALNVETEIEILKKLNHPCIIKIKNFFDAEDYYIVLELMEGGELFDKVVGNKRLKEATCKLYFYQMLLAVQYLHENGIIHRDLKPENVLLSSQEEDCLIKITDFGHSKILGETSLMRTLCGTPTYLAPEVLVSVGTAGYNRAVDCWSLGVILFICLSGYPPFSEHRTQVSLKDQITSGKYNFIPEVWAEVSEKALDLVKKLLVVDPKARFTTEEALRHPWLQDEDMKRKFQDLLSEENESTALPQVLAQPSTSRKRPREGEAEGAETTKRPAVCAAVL

[18] = molecular target: T1, Testis-specific serine/threonine-protein kinase 1 (Homo sapiens) (UniProt Q9BXA7); assay: Inhibition of TSSK1B (unknown origin) at 200 nM in presence of ATP by kinase profiling analysis relative to control
T1 sequence (whole entry): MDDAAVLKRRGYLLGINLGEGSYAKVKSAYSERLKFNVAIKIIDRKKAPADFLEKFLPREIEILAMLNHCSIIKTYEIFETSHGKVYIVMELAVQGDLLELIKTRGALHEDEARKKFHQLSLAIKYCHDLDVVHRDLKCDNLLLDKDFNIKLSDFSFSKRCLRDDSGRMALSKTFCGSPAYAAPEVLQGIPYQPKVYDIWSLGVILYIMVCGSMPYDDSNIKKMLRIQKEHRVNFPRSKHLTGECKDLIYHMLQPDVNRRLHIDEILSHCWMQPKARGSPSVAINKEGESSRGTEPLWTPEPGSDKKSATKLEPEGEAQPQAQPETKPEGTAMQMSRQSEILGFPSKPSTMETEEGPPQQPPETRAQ

[19] = molecular target: Macrophage colony-stimulating factor 1 receptor (Homo sapiens) (UniProt P07333); assay: Inhibition of CSF1R (unknown origin) at 200 nM in presence of ATP by kinase profiling analysis relative to control
[20] = molecular target: Mast/stem cell growth factor receptor Kit (Homo sapiens) (UniProt P10721); assay: Inhibition of KIT (unknown origin) at 200 nM in presence of ATP by kinase profiling analysis relative to control
Sequence of Mast/stem cell growth factor receptor Kit (Homo sapiens) (P10721 whole entry): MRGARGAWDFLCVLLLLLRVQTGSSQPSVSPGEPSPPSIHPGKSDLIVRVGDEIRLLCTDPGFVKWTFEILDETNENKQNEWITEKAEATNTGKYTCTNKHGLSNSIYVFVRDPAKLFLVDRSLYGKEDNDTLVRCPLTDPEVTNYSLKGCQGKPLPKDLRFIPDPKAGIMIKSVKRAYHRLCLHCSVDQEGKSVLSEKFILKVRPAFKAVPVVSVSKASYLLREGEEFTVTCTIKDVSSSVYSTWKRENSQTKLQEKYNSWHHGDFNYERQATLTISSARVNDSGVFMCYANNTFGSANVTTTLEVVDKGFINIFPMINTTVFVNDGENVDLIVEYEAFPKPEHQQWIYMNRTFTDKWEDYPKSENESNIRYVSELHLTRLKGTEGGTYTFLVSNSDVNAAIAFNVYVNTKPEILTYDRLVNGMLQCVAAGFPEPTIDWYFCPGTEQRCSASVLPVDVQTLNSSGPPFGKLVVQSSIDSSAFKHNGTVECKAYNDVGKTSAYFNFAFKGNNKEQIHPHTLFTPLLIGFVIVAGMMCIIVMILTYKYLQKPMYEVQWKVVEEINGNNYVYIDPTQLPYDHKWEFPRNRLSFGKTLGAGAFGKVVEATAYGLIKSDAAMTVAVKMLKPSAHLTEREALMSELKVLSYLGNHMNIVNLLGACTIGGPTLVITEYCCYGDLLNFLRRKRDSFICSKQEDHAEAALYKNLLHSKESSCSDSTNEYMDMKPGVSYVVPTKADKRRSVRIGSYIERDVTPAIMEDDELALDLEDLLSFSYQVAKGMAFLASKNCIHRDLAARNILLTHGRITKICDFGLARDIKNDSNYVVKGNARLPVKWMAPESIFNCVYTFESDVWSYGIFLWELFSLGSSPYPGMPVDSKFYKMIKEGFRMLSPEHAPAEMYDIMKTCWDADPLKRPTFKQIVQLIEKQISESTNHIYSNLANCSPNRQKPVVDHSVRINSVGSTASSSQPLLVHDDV

[21] = molecular target: Proto-oncogene tyrosine-protein kinase ROS (Homo sapiens) (UniProt P08922); assay: Inhibition of ROS1 (unknown origin) at 200 nM in presence of ATP by kinase profiling analysis relative to control
[22] = organism: Homo sapiens; assay: Inhibition of NTRK1 (unknown origin) at 200 nM in presence of ATP by kinase profiling analysis relative to control
[23] = molecular target: Cyclin-dependent kinase 2 (Homo sapiens) (UniProt P24941); assay: Inhibition of CDK2 (unknown origin) at 200 nM in presence of ATP by kinase profiling analysis relative to control
[24] = molecular target: Mitogen-activated protein kinase kinase kinase kinase 4 (Homo sapiens) (UniProt O95819); assay: Inhibition of MAP4K4 (unknown origin) at 200 nM in presence of ATP by kinase profiling analysis relative to control
[25] = Toxicity in BALB/cAJcl-nu/nu mouse xenografted with […] mouse BaF3 cells expressing FER at 100 mg/kg, po qd for 10 days; format: organism-based; conditions: in vivo, 240 h, time 10 day
[26] = molecular target: Leukocyte tyrosine kinase receptor (Homo sapiens) (UniProt P29376); assay: Inhibition of LTK (unknown origin) at 200 nM in presence of ATP by kinase profiling analysis relative to control
[27] = system: BaF3; assay: Antitumor activity against […] mouse BaF3 cells expressing FER xenografted in BALB/cAJcl-nu/nu mouse administered orally once a day for 4 days; format: functional, cell-based; conditions: dose 6.25-100 mg/kg, route po, time 4.0 day
[28] = Toxicity in BALB/cAJcl-nu/nu mouse xenografted with […] mouse BaF3 cells expressing FER at 6.25 to 100 mg/kg, po qd for 10 days; format: organism-based; conditions: in vivo, 240 h, dose 6.25-100 mg/kg, time 10 day

## CCOc1cccc(Nc2nc(NC3CCCCC3N)c(F)c3cn[nH]c(=O)c23)c1 (racemic)
[1]
  GI50: 50 nM
[2]
  GI50: 1600 nM

## Cc1cccc(Nc2nc(NC3CCCCC3N)c(F)c3cn[nH]c(=O)c23)c1 (racemic)
[1]
  GI50: 30 nM
[2]
  GI50: 1230 nM

## Cc1cccc(Nc2nc(NC3CCCCC3N)c(C#N)c3cn[nH]c(=O)c23)c1 (centres undefined)
[3]
  IC50: 0.49 nM
[1]
  GI50: 1.9 nM
[2]
  GI50: 220 nM
[4]
  remaining at 0.5 h, 1 µM: 96%
[5]
  solubility at 4 h: 0.9 µg/mL (≈ 2.31 µM)
[6]
  solubility at 4 h: 2.1 µg/mL (≈ 5.39 µM)
[7]
  fraction unbound at 4 h, 10 ug/ml: 0.01
[8]
  Papp at 4 h, 5 µM: > 50 ×10⁻⁶ cm/s
[9]
  clearance: 12 mL/min/kg
[10]
  AUC: 4800 ng·h/mL
[11]
  Cmax: 360 ng/mL
[12]
  bioavailability: 34%
[13]
  inhibition: > 90%
[14]
  inhibition: > 90%
[15]
  inhibition: > 90%
[16]
  inhibition: > 90%
[17]
  inhibition: > 90%
[18]
  inhibition: > 90%
[19]
  inhibition: > 90%
[20]
  inhibition: > 90%
[21]
  inhibition: > 90%
[22]
  inhibition: > 90%
[23]
  inhibition: > 90%
[24]
  inhibition: > 90%
[25]
  Activity: Toxic

## CN1CCN(c2cccc(Nc3nc(NC4CCCCC4N)c(F)c4cn[nH]c(=O)c34)c2)CC1 (racemic)
[1]
  GI50: 76 nM
[2]
  GI50: 630 nM

## N#Cc1c(N[C@@H]2CCCC[C@@H]2N)nc(Nc2cccc(N3CC4(COC4)C3)c2)c2c(=O)[nH]ncc12
[1]
  GI50: 0.36 nM
[2]
  GI50: 362 nM

## N#Cc1c(N[C@@H]2CCCC[C@@H]2N)nc(Nc2cccc(N3CCOCC3)c2)c2c(=O)[nH]ncc12
[1]
  GI50: 1.2 nM
[2]
  GI50: 310 nM

## N[C@H]1CCCC[C@H]1Nc1nc(Nc2cccc(N3CCOCC3)c2)c2c(=O)[nH]ncc2c1F
[1]
  GI50: 4.7 nM
[2]
  GI50: 1200 nM

## Cn1cc(Nc2nc(NC3CCCCC3N)c(F)c3cn[nH]c(=O)c23)cn1 (racemic)
[1]
  GI50: 57 nM
[2]
  GI50: 340 nM

## C[C@@H]1CN(c2cccc(Nc3nc(N[C@@H]4CCCC[C@@H]4N)c(C#N)c4cn[nH]c(=O)c34)c2)C[C@H](C)O1
[1]
  GI50: 0.67 nM
[2]
  GI50: 1000 nM
[4]
  remaining at 0.5 h, 1 µM: 85%
[5]
  solubility at 4 h: 6.7 µg/mL (≈ 13.7 µM)
[6]
  solubility at 4 h: 30 µg/mL (≈ 61.4 µM)
[7]
  fraction unbound at 4 h, 10 ug/ml: 0.03
[8]
  Papp at 4 h, 5 µM: > 50 ×10⁻⁶ cm/s
[9]
  clearance: 13 mL/min/kg
[10]
  AUC: 8200 ng·h/mL
[11]
  Cmax: 630 ng/mL
[12]
  bioavailability: 65%
[13]
  inhibition: > 90%
[14]
  inhibition: > 90%
[15]
  inhibition: > 90%
[16]
  inhibition: > 90%
[17]
  inhibition: > 90%
[18]
  inhibition: > 90%
[26]
  inhibition: > 90%
[27]
  Activity: Dose-Dependent Effect
[28]
  Activity: Non-Toxic
